Measurements: patent publication US11618747B2, “LXR modulators with bicyclic core moiety” (OrsoBio, Inc., priority 2018, dated 2023)
Where two headings read alike, the source gives them in different places.

Key:
[1] = target: T1, ligand-binding domain (LBD) of LXRα (Homo sapiens, UniProt Q13133); test: LXR Gal4 reporter transient transfection assay (LBD-M2H Gal4α); type: cell-based; settings: HEK293 cells, LXRα LBD; read-out: LBD-M2H Gal4α (EC50 range)
T1 construct: expressed in transfected cells; host or cells: HEK293
T1 sequence (Q13133 155-447): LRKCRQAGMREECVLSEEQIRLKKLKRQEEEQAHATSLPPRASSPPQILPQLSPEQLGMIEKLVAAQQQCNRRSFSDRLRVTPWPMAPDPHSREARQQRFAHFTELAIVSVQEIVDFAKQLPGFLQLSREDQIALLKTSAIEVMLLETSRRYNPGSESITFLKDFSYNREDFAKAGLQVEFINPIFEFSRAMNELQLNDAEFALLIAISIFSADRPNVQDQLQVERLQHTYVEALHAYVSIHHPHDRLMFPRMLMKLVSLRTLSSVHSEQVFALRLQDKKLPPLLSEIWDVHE
Method: The tested compounds were usually dissolved, tested and stored as 20 mM stock solutions in DMSO. Since sulfonyl acetic acid derivatives tend to decarboxylate under these conditions, these stock solutions were prepared, tested and stored as 20 mM DMSO stock solutions containing 100 mM trifluoroacetic Acid (5 equivalents). Sulfonyl acetic acid derivatives are shelf stable as solid at rt for long time as reported by Griesbrecht et al. (Synlett 2010:374) or Faucher et al. (J. Med. Chem. 2004; 47:18).
LXR Gal4 Reporter Transient Transfection Assays
LXRα and LXRβ activity status was determined via detection of interaction with coactivator and corepressor proteins in mammalian two-hybrid experiments (M2H). For this, via transient transfection the full length (FL) proteins of LXRα (amino acids 1-447; NP005684; SEQ ID NO:1) or LXRβ-(amino acids 1-461; NP009052; SEQ ID NO:2) or the ligand-binding domains (LBD) of LXRα (amino acids 155-447 SEQ ID NO:3) or LXRβ (amino acids 156-461; SEQ ID NO:4) were expressed from pCMV-AD (Stratagene) as fusions to the transcriptional activation domain of NFkB. As cofactors, domains of either the steroid receptor coactivator 1 (SRC1; amino acids 552-887; SEQ ID NO:5) or of the corepressor NCoR (amino acids 1906-2312; NP006302; SEQ ID NO:6) were expressed as fusions to the DNA binding domain of the yeast transcription factor GAL4 (from pCMV-BD; Stratagene). Interaction was monitored via activation of a coexpressed Firefly Luciferase Reporter gene under control of a promoter containing repetitive GAL4 response elements (vector pFRLuc; Stratagene). Transfection efficiency was controlled via cotransfection of constitutively active pRL-CMV Renila reniformis luciferase reporter (Promega). HEK293 cells were grown in minimum essential medium (MEM) with 2 mM L-glutamine and Earle's balanced salt solution supplemented with 8.3% fetal bovine serum, 0.1 mM non-essential amino acids, 1 mM sodium pyruvate, at 37° C. in 5% CO2. 3.5×10^4 cells/well were plated in 96-well cell culture plates in growth medium supplemented with 8.3% fetal bovine serum for 16-20 h to ˜90% confluency. For transfection, medium was taken off and LXR and cofactor expressing plasmids as well as the reporter plasmids are added in 30 μL OPTIMEM/well including polyethylene-imine (PEI) as vehicle. Typical amounts of plasmids transfected/well: pCMV-AD-LXR (5 ng), pCMV-BD-cofactor (5 ng), pFR-Luc (100 ng), pRL-CMV (0.5 ng). Compound stocks were prepared in DMSO, prediluted in MEM to a total volume of 120 μL, and added 4 h after addition of the transfection mixture (final vehicle concentration not exceeding 0.2%). Cells were incubated for additional 16 h, lysed for 10 min in 1× Passive Lysis Buffer (Promega) and Firefly and Renilla luciferase activities were measured sequentially in the same cell extract using buffers containing D-luciferine and coelenterazine, respectively. Measurements of luminescence were done in a BMG-luminometer.

[2] = target: T2, LXRβ ligand-binding domain (Homo sapiens, UniProt P55055, DUP175-175); test: TR-FRETβ activity assay (NCoA3 coactivator peptide recruitment); type: biochemical; settings: TR-FRET, 1 μM 24(S)-25-epoxycholesterol prestimulation; read-out: FRETβ (EC50 range)
T2 construct: amino acids 156-461; NP009052; made in house; host or cells: E. coli
T2 sequence (P55055 with tags, fused parts or gaps DUP175-175 limits assumed): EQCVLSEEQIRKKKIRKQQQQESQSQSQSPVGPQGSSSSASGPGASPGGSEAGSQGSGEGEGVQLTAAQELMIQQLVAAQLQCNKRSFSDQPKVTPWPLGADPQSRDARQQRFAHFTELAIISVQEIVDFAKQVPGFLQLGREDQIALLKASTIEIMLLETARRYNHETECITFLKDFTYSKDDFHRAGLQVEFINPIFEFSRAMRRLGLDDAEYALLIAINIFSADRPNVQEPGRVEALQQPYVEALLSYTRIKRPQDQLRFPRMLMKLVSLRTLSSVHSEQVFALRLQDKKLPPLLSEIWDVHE
Procedure, shortened: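 Inverse agonism assessed by loss of coactivator recruitment, read as TR-FRET 665/615 nm after 1 h equilibration at 4 °C, in triplicate. Ten-point titration from 50 μM to 0.002 μM against LXRβ LBD (76 nM, GST fusion) prestimulated with 1 μM 24(S)-25-epoxycholesterol, with 400 nM NCoA3 peptide, pH 6.8. Sulfonyl acetic acids kept as 20 mM DMSO stocks with 100 mM TFA.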

[3] = Pharmacokinetics in mice after single oral dosing (blood/plasma and liver exposure); type: in vivo, mice (C57/bl6/J)
Method: The pharmacokinetics of the compounds was assessed in mice after single dosing and oral administrations. Blood/plasma and liver exposure was measured via LC-MS.
The study design was as follows:
Animals: C57/bl6/J (Janvier) males
Diet: standard rodent chow
Animal handling: animals were withdrawn from food at least 12 h before administration
Design: single dose oral administration, n=3 animals per group
Sacrifice: at stated time point (4, 12 or 24 h) after administration
Bioanalytics: LC-MS of liver and blood/plasma samples

[4] = target: T3, ligand-binding domain (LBD) of LXRβ (Homo sapiens, UniProt P55055, DUP175-175); test: LXR Gal4 reporter transient transfection assay (LBD-M2H Gal4β); type: cell-based; settings: HEK293 cells, LXRβ LBD; read-out: LBD-M2H Gal4β (EC50 range)
T3 construct: LXRβ (amino acids 156-461); expressed in transfected cells; host or cells: HEK293
T3 sequence (P55055 with tags, fused parts or gaps DUP175-175 limits assumed): T2 sequence (P55055 with tags, fused parts or gaps DUP175-175 limits assumed)
Procedure, shortened: (§1)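 Mammalian two-hybrid in HEK293: AD-LXR (FL or LBD) + BD-cofactor (SRC1 coactivator or NCoR corepressor domain), pFR-Luc reporter, pRL-CMV normaliser; PEI transfection. Compound added 4 h later (DMSO ≤0.2% final), 16 h incubation at 37 °C. Firefly/Renilla luminescence measured sequentially in lysate.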

full length (FL) LXRβ = target: T4, full length (FL) LXRβ (Homo sapiens, UniProt P55055, DUP175-175); test: LXR Gal4 reporter transient transfection assay (FL-M2H Gal4β); type: cell-based; settings: HEK293 cells, full length LXRβ; read-out: FL-M2H Gal4β (EC50 range)
T4 construct: the full length (FL) proteins of LXRα (amino acids 1-447); NP005684; NP009052; expressed in transfected cells; host or cells: HEK293
T4 sequence (P55055 with tags, fused parts or gaps DUP175-175): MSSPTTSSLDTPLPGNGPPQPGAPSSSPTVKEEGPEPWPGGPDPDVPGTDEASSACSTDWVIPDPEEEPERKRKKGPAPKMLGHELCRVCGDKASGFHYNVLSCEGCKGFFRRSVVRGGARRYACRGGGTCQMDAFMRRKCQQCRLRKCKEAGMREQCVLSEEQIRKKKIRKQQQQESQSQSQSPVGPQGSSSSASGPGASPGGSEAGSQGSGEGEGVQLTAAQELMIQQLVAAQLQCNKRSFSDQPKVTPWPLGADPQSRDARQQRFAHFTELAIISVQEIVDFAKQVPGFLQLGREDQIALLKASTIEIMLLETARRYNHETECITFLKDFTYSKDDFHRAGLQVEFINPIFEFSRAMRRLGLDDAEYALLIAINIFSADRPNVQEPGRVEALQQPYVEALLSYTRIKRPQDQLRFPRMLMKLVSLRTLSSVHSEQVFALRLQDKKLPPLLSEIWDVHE
Procedure, shortened: as §1

full length (FL) LXRα = target: T5, full length (FL) LXRα (Homo sapiens, UniProt Q13133); test: LXR Gal4 reporter transient transfection assay (FL-M2H Gal4α); type: cell-based; settings: HEK293 cells, full length LXRα; read-out: FL-M2H Gal4α (EC50 range)
T5 construct: the full length (FL) proteins of LXRα (amino acids 1-447); NP005684; expressed in transfected cells; host or cells: HEK293
T5 sequence (Q13133 1-447): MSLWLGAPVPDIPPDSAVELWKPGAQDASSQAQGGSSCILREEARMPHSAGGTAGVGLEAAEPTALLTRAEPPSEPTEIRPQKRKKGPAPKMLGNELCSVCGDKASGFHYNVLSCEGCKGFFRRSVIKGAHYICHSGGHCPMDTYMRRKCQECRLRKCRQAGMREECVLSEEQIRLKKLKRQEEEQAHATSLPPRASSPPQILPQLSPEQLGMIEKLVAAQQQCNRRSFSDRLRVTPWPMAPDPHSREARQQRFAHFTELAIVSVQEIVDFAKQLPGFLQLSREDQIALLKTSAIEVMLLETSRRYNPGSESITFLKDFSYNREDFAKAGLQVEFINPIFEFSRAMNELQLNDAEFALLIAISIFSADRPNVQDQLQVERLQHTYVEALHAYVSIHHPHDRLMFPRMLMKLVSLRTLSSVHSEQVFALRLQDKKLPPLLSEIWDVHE
Procedure, shortened: as §1

[5] = rat liver microsomal assay; cited from earlier work
[6] = human liver microsomal assay; cited from earlier work
[7] = 20 mg/kg single oral dose, time point 4 h

| Compound | EC50 [1] [nM] | EC50 [2] [nM] | blood/plasma exposure [3, 7] | liver exposure [3, 7] | liver/blood ratio [3, 7] | EC50 [4] [nM] | EC50 (full length (FL) LXRβ) [nM] | EC50 (full length (FL) LXRα) [nM] | clearance (Clint) [5] [mL/min/mg protein] | blood/plasma exposure (below LLOQ, LLOQ given) [3, 7] | liver exposure (below LLOQ, LLOQ given) [3, 7] | oral bioavailability (in words) ([3]; oral administration) | clearance (Clint) [6] [mL/min/mg protein] |
| --- | --- | --- | --- | --- | --- | --- | --- | --- | --- | --- | --- | --- | --- |
| N#Cc1sccc1-c1c(-c2cccc(N3CC(C(=O)O)C3)c2)n(S(=O)(=O)c2ccc(Cl)cc2)c2ccccc12 [30/7] | < 100 | 100 to 1000 | D (D: <100 nM) | B (B: 300 nM to ≤1 μM) | D (D: >30) | < 100 |  |  |  |  |  |  |  |
| N#Cc1sccc1-c1c(-c2cccc(C3CC3C(=O)O)c2)n(S(=O)(=O)c2ccc(Cl)cc2)c2ccc(F)cc12 (centres unmarked) [3/24] | < 100 |  | D (D: <100 nM) | C (C: 1 μM to ≤3 μM) | D (D: >30) | < 100 | < 100 | < 100 |  |  |  |  |  |
| Cc1ccc(S(=O)(=O)n2c(-c3cccc(-c4ccc(CN5CCN(C)CC5)cc4)c3)c(-c3ccsc3C#N)c3cc(F)ccc32)cc1 [Example 8, 3-(5-Fluoro-2-(4′-((4-methylpiperazin-1-yl)methyl)-[1,1′-biphenyl]-3-yl)-1-tosyl-1H-indol-3-yl)thiophene-2-carbonitrile] |  | 100 to 1000 | B (B: 300 nM to ≤1 μM) | D (D: >3 μM) | B (B: 3 to ≤10) |  | < 100 |  |  |  |  |  |  |
| N#Cc1sccc1-c1c(-c2cccc(C3CC3C(=O)O)c2)n(S(=O)(=O)c2ccc(Cl)cc2)c2ccccc12 (centres unmarked) [30/4] | 100 to 1000 | 1000 to 10000 | C (C: 100 nM to <300 nM) | C (C: 1 μM to ≤3 μM) | C (C: 10 to ≤30) | < 100 |  |  |  |  |  |  |  |
| Cc1cc(C)c(S(=O)(=O)N(Cc2ccc(-c3cccc(S(C)(=O)=O)c3)cc2)Cc2ccc(C(F)(F)F)o2)c(C)c1 [GSK2033, reference compound] |  |  |  |  |  |  |  |  | > 1.0 | (14.4 ng/mL) | (9.6 ng/mL) | not orally bioavailable | > 1.0 |
